#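 All cell lines were grown in 96-well plates and treated with compound for 48 hours. TGI: total growth inhibition.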
# What was measured:
# Experiment in all cases: growth of human tumour cells (NCI), 48 h
# [1] = tested on: K-562 leukemia
# [2] = tested on: SNB-75 CNS
# [3] = tested on: NCI/ADR-RES ovarian
# [4] = tested on: UACC-62 melanoma
# [5] = tested on: RPMI-8226 leukemia
# [6] = tested on: PC-3 prostate
# [7] = tested on: OVCAR-3 ovarian
# [8] = tested on: M14 melanoma
# [9] = tested on: DU-145 prostate
# [10] = tested on: HL-60(TB) leukemia
# [11] = tested on: HT29 colon
# [12] = tested on: OVCAR-4 ovarian
# [13] = tested on: MDA-MB-435
# [14] = tested on: NCI-H23 lung
# [15] = tested on: HCT-116 colon
# [16] = tested on: UACC-257 melanoma
# [17] = tested on: HS 578T breast
# [18] = tested on: SK-MEL-28 melanoma
# [19] = tested on: EKVX NSCLC
# [20] = tested on: MOLT-4 leukemia
# [21] = tested on: BT-549 breast
# [22] = tested on: SK-MEL-5 melanoma
# [23] = tested on: CAKI-1 renal
# [24] = tested on: HOP-62 NSCLC
# [25] = tested on: OVCAR-8 ovarian
# [26] = tested on: HCT-15 colon
# [27] = tested on: ACHN renal
# [28] = tested on: HOP-92 NSCLC
# [29] = tested on: COLO 205 colon
# [30] = tested on: RXF 393 renal
# [31] = tested on: SK-OV-3 ovarian
# [32] = tested on: HCC-2998 colon
# [33] = tested on: U251 CNS
# [34] = tested on: SN12C renal
# [35] = tested on: NCI-H226 lung
# [36] = tested on: KM12 colon
# [37] = tested on: NCI-H522 lung
# [38] = tested on: SNB-19 CNS
# [39] = tested on: UO-31 renal
# [40] = tested on: MDA-N
# [41] = tested on: MDA-MB-231 breast
# [42] = tested on: TK-10 renal
# [43] = tested on: SK-MEL-2 melanoma
# [44] = tested on: SF-268 CNS
# [45] = tested on: IGROV1 ovarian
# [46] = tested on: OVCAR-5 ovarian
# [47] = tested on: LOX IMVI melanoma
# [48] = tested on: CCRF-CEM leukemia
# [49] = tested on: 786-0 renal
# [50] = tested on: A549 NSCLC
# [51] = tested on: SF-539 CNS
# [52] = tested on: MCF7 breast
# [53] = tested on: T-47D breast
# [54] = tested on: SW-620 colon
# [55] = tested on: NCI-H460 lung
# [56] = tested on: SF-295 CNS
# [57] = tested on: A498 renal
# [58] = tested on: MALME-3M melanoma
smiles,measurement,setting,value
O=C1C(C=NC(=S)c2ccccc2)=C(O)c2ccccc21,TGI,[1],> 100 µM
same,TGI,[2],> 100 µM
same,TGI,[3],> 100 µM
same,TGI,[4],> 100 µM
same,TGI,[5],67.6 µM
same,TGI,[6],> 100 µM
same,TGI,[7],> 100 µM
same,TGI,[8],> 100 µM
same,TGI,[9],> 100 µM
same,TGI,[10],22 µM
same,TGI,[11],> 100 µM
same,TGI,[12],> 100 µM
same,TGI,[13],> 100 µM
same,TGI,[14],> 100 µM
same,TGI,[15],> 100 µM
same,TGI,[16],> 100 µM
same,TGI,[17],> 100 µM
same,TGI,[18],> 100 µM
same,TGI,[19],> 100 µM
same,TGI,[20],69.3 µM
same,TGI,[21],> 94 µM
same,TGI,[22],> 100 µM
same,TGI,[23],> 100 µM
same,TGI,[24],> 100 µM
same,TGI,[25],> 100 µM
same,TGI,[26],> 100 µM
same,TGI,[27],> 100 µM
same,TGI,[28],> 84.8 µM
same,TGI,[29],> 100 µM
same,TGI,[30],> 100 µM
same,TGI,[31],85.6 µM
same,TGI,[32],> 100 µM
same,TGI,[33],> 100 µM
same,TGI,[34],> 100 µM
same,TGI,[35],> 100 µM
same,TGI,[36],> 100 µM
same,TGI,[37],50.9 µM
same,TGI,[38],> 100 µM
same,TGI,[39],> 88.9 µM
same,TGI,[40],> 100 µM
same,TGI,[41],> 100 µM
same,TGI,[42],> 100 µM
same,TGI,[43],> 100 µM
same,TGI,[44],> 100 µM
same,TGI,[45],> 70.5 µM
same,TGI,[46],> 100 µM
same,TGI,[47],> 67.9 µM
same,TGI,[48],53.9 µM
same,TGI,[49],> 66.7 µM
same,TGI,[50],> 100 µM
same,TGI,[51],> 100 µM
same,TGI,[52],> 100 µM
same,TGI,[53],> 100 µM
same,TGI,[54],> 100 µM
same,TGI,[55],> 100 µM
same,TGI,[56],> 100 µM
COc1ccc(C(NS(=O)(=O)c2ccc(C)cc2)c2c(C(CBr)OC)c3ccccc3n2S(=O)(=O)c2ccccc2)cc1OC (centres undefined),TGI,[1],> 100 µM
same,TGI,[2],> 100 µM
same,TGI,[3],> 100 µM
same,TGI,[4],> 100 µM
same,TGI,[6],> 100 µM
same,TGI,[7],> 100 µM
same,TGI,[8],> 100 µM
same,TGI,[9],> 100 µM
same,TGI,[10],> 100 µM
same,TGI,[11],> 100 µM
same,TGI,[12],> 100 µM
same,TGI,[13],> 100 µM
same,TGI,[14],> 100 µM
same,TGI,[15],> 100 µM
same,TGI,[16],> 100 µM
same,TGI,[57],> 100 µM
same,TGI,[17],> 100 µM
same,TGI,[18],> 100 µM
same,TGI,[19],> 100 µM
same,TGI,[20],> 100 µM
same,TGI,[21],> 100 µM
same,TGI,[22],> 100 µM
same,TGI,[23],> 100 µM
same,TGI,[24],> 100 µM
same,TGI,[25],> 100 µM
same,TGI,[26],> 100 µM
same,TGI,[27],> 100 µM
same,TGI,[28],> 100 µM
same,TGI,[29],> 100 µM
same,TGI,[30],> 100 µM
same,TGI,[31],> 100 µM
same,TGI,[32],> 100 µM
same,TGI,[33],> 100 µM
same,TGI,[34],> 100 µM
same,TGI,[58],> 100 µM
same,TGI,[35],> 100 µM
same,TGI,[36],> 100 µM
same,TGI,[37],> 100 µM
same,TGI,[38],> 100 µM
same,TGI,[39],> 100 µM
same,TGI,[40],> 100 µM
same,TGI,[41],> 100 µM
same,TGI,[42],> 100 µM
same,TGI,[43],> 100 µM
same,TGI,[44],> 100 µM
same,TGI,[45],> 100 µM
same,TGI,[46],> 100 µM
same,TGI,[47],> 100 µM
same,TGI,[48],> 100 µM
same,TGI,[49],> 100 µM
same,TGI,[50],> 100 µM
same,TGI,[51],> 100 µM
same,TGI,[52],> 100 µM
same,TGI,[53],> 100 µM
same,TGI,[54],> 100 µM
same,TGI,[55],> 100 µM
same,TGI,[56],> 100 µM
O=S(=O)(O)c1cc(S(=O)(=O)O)c2c(Nc3ccnc4ccccc34)ccc(S(=O)(=O)O)c2c1,TGI,[2],> 100 µM
same,TGI,[3],> 100 µM
same,TGI,[4],> 100 µM
same,TGI,[5],> 100 µM
same,TGI,[6],> 100 µM
same,TGI,[7],> 100 µM
same,TGI,[8],> 100 µM
same,TGI,[9],> 100 µM
same,TGI,[10],> 100 µM
same,TGI,[11],> 100 µM
same,TGI,[12],> 100 µM
same,TGI,[13],> 100 µM
same,TGI,[14],> 100 µM
same,TGI,[15],> 100 µM
same,TGI,[16],> 100 µM
same,TGI,[57],> 100 µM
same,TGI,[17],> 100 µM
same,TGI,[18],> 100 µM
same,TGI,[19],> 100 µM
same,TGI,[20],> 100 µM
same,TGI,[21],> 100 µM
same,TGI,[22],> 100 µM
same,TGI,[23],> 100 µM
same,TGI,[24],> 100 µM
same,TGI,[25],> 100 µM
same,TGI,[26],> 100 µM
same,TGI,[27],> 100 µM
same,TGI,[29],> 100 µM
same,TGI,[30],> 100 µM
same,TGI,[31],> 100 µM
same,TGI,[32],> 100 µM
same,TGI,[33],> 100 µM
same,TGI,[34],> 100 µM
same,TGI,[58],> 100 µM
same,TGI,[35],> 100 µM
same,TGI,[36],> 100 µM
same,TGI,[37],> 100 µM
same,TGI,[38],> 100 µM
same,TGI,[39],> 100 µM
same,TGI,[40],> 100 µM
same,TGI,[41],> 100 µM
same,TGI,[42],> 100 µM
same,TGI,[43],> 100 µM
same,TGI,[44],> 100 µM
same,TGI,[45],> 100 µM
same,TGI,[46],> 100 µM
same,TGI,[47],> 100 µM
same,TGI,[48],> 100 µM
same,TGI,[49],> 100 µM
same,TGI,[50],> 100 µM
same,TGI,[51],> 100 µM
same,TGI,[52],> 100 µM
same,TGI,[53],> 100 µM
same,TGI,[54],> 100 µM
same,TGI,[55],> 100 µM
same,TGI,[56],> 100 µM

# Reference: PubChem BioAssay (NCI)
